From patent US20080027010A1, “Treatment of refractory cancers using Na+/K+-ATPase inhibitors” (Bionaut Pharmaceuticals, Inc., priority 2004, published 2008)
Entries after “also recorded” stand apart in the source; their conditions may differ.

Key:
[1] = test system: HIF-1α; test: HIF-1α Western blot in human tumor cells under hypoxia; assay type: cell-based
Description: For HIF1-alpha Western blots, Hep3B cells were seeded in growth medium at a density of 7×10^6 cells per 100 mm dish. […] Samples were fractionated on 3-8% Tris-Acetate gel (Invitrogen NUPAGE system) by sodium dodecyl sulfate (SDS)-polyacrylamide gel electropherosis and transferred onto nitrocellulose membrane. […] Anti-Beta-actin monoclonal antibody (Abcam, ab6276-100) was used at a 1:5000 dilution with a 30-minute incubation at room temperature.
The cells were placed in hypoxic conditions for 4 hours for HIF1-alpha accumulation.
The cells were lysed and proteins were resolved by SDS-PAGE and transferred to a nylon membrane. The membrane was immunoblotted with anti-HIF-1α and anti-HIF1β MAb, and anti-beta-actin antibodies.
HIF-1α and β-actin protein level was determined by western blotting.

[2] = test system: Caki-1 human renal cancer xenograft; assay type: in vivo; details: xenografted Caki-1 human renal tumors in nude mice; FIG. 23
Source text: Female nude mice (nu/nu) between 5 and 6 weeks of age weighing approximately 20 g were implanted subcutaneously (s.c.) by trocar with fragments of human tumors harvested from s.c. grown tumors in nude mice hosts. […] Each group contains 8-10 mice, each of which was ear tagged and followed throughout the experiment.
The administration of drugs or controls began the day the animals were pair-matched (Day 1). […] Mice were weighed and tumor measurements were obtained using calipers twice weekly, starting Day 1. These tumor measurements were converted to mg tumor weight by standard formula, (W^2×L)/2. The experiment is terminated when the control group tumor size reached an average of about 1 gram. Upon termination, the mice were weighed, sacrificed and their tumors excised. The tumors were weighed and the mean tumor weight per group was calculated.

[3] = mice
[4] = test system: Panc-1 human pancreatic xenograft; test: Panc-1 human pancreatic tumor xenograft in nude mice; assay type: in vivo; details: Panc-1 xenografts in nude mice; FIGS. 16, 17, 22
Description: The control animals received pumps containing vehicle (50% DMSO in DMEM). The mice treated with standard chemotherapy agent received intra-peritoneal injections of Gemcitabine at 40 mg/kg every 3 days for 4 treatments (q3d×4). Each data point represent average tumor weight (n=8) and error bars indicate SEM.

[5] = test system: HIF-1α; test: HIF-1α induced under normoxia by PHD inhibitor L-mimosone in Hep3B cells, Western blot; assay type: cell-based, human
Description: Abundance of HIF-1α and β-actin was determined by western blotting.

[6] = test system: Na/K-ATPase; details: cited from earlier work
[7] = cited from earlier work
[8] = cited from earlier work; remark: listed apart in the source
[9] = test system: VEGF; test: VEGF secretion in tumor cells; assay type: cell-based; details: FIG. 8
[10] = test system: several different cancer cell lines; test: Proliferation of several different cancer cell lines; assay type: cell-based
[11] = test system: A549 Sentinel Line; test: Sentinel Line beta-galactosidase reporter assay (FACS, FDG loading); assay type: cell-based, human; details: 40 hrs; mitoxantrone 8 nM, paclitaxel 1.5 nM, carboplatin 15 μM, Iressa 4 μM
Description: The expression level of beta-galactosidase gene in sentinel lines was determined by using a fluorescent substrate fluorescein di-β-D-Galactopyranside (FDG, Marker Gene Tech, #M0250) introduced into cells by hypotonic shock. Cleavage by beta-galactosidase results in the production of free fluorescein, which is unable to cross the plasma membrane and is trapped inside the beta-gal positive cells. Briefly, the cells to be analyzed are trypsinized, and resuspended in PBS containing 2 mM FDG (diluted from a 10 mM stock prepared in 8:1:1 mixture of water:ethanol:DMSO). The cells were then shocked for 4 minutes at 37° C. and transferred to FACS tubes containing cold 1×PBS on ice. Samples were kept on ice for 30 minutes and analyzed by FACS in FL1 channel.
Sentinel Line cells with beta-galactosidase reporter gene were plated at 1×10^5 cells/10 cm dish. […] After 40 hrs, the cells were trypsinized and the expression level of reporter gene was determined by FDG loading.
The reporter activity was measured by FACS analysis.

C[C@@H]1OC(OC2C=C3CCC4C(CC[C@]5(C)[C@@H](c6ccc(=O)oc6)CC[C@]45O)[C@@]3(C)CC2)[C@H](O)[C@H](O)[C@H]1O (stereo partly drawn) [BNC-4, proscillaridin]
HIF-1α expression ([1]; 0.1 μM): completely inhibits HIF-1α expression | HIF-1α expression ([1]; 1 μM): completely inhibits HIF-1α expression | tumor growth [2]: significantly reduce tumor growth | serum level corresponding to maximum toxic dose (MTD) [3]: about 518 (±121) ng/ml | toxic serum concentration at day 1 ([3]; steady state delivery): about 518±121 ng/ml | tumor growth [4]: significantly reduce tumor growth | HIF-1α accumulation ([5]; 200 μM L-mimosone for 18 h): blocks HIF-1α induction; also recorded: eliminated HIF-1α accumulation | HIF-1α accumulation ([5]; L-mimosone, low concentration tested): did not appear to have an effect | order of Na/K-ATPase-inhibition [6]: Ouabain<Digoxin<Proscillaridin | patients taken off treatment because of negative side effects ([7]; 1067 patients observed for up to 3 years): 0.7% | doses producing typical cardiac glycoside intoxication symptoms ([7]; healthy individuals): above 4 mg p.o./d | average level of side effects (nausea, seasickness, headache, vomiting, stomach cramps, diarrhea) in clinical reports ([7]; human, in vivo): 5% | dose taken without any negative side effects ([7]; long-term medication of cardiac illnesses): up to 1.5 mg per day | reported cases in which therapy could be resumed after a brief hiatus ([7]; review of 47 clinical studies): > 95% | time of third plasma concentration peak ([8]; after dosing): about 10 hours | influence of impaired kidney function on clearance ([8]; in vivo): no influence on clearance | secretion of the angiogenesis factor VEGF [9]: directly or indirectly inhibits

C[C@@H]1O[C@@H](O[C@H]2C[C@@H](O)[C@]3(CO)[C@H]4[C@H](O)C[C@]5(C)[C@@H](C6=CC(=O)OC6)CC[C@]5(O)[C@@H]4CC[C@]3(O)C2)[C@H](O)[C@H](O)[C@H]1O [BNC-1, ouabain]
decrease of concentration effective for inhibiting proliferation of cancer cells ([10]; combination with steroid signal modulator (Casodex)): 5 fold | IC50 ([10]; proliferation of cancer cell lines, read-out: IC50 across several different cancer cell lines): 80 to 300 nM | order of Na/K-ATPase-inhibition [6]: Ouabain<Digoxin<Proscillaridin | secretion of the angiogenesis factor VEGF [9]: directly or indirectly inhibits

CC(=O)O[C@H]1C(=O)[C@@]2(C)[C@H]([C@H](OC(=O)c3ccccc3)[C@]3(O)C[C@H](OC(=O)[C@H](O)[C@@H](NC(=O)c4ccccc4)c4ccccc4)C(C)=C1C3(C)C)[C@]1(OC(C)=O)CO[C@@H]1C[C@@H]2O [paclitaxel]
cell death and reporter activity in Sentinel Lines [11]: increases in cell death and reporter activity

C[C@H]1O[C@@H](O[C@H]2[C@@H](O)C[C@H](O[C@H]3[C@@H](O)C[C@H](O[C@H]4CC[C@@]5(C)[C@H](CC[C@@H]6[C@@H]5C[C@@H](O)[C@]5(C)[C@@H](C7=CC(=O)OC7)CC[C@]65O)C4)O[C@@H]3C)O[C@@H]2C)C[C@H](O)[C@@H]1O [Digoxin]
order of Na/K-ATPase-inhibition [6]: Ouabain<Digoxin<Proscillaridin

N.N.O=C([O-])C1(C(=O)[O-])CCC1.[Pt+2] [Carboplatin]
cell death and reporter activity in Sentinel Lines [11]: increases in cell death and reporter activity

C[C@@H]1OC(OC2C=C3CCC4C5=CC[C@H](c6ccc(=O)oc6)[C@@]5(C)CCC4[C@@]3(C)CC2)[C@H](O)[C@H](O)[C@H]1O (stereo partly drawn) [BNC-151]
HIF-1α expression ([1]; 1 μM): Significant inhibition of HIF-1α expression

COc1cc2ncnc(Nc3ccc(F)c(Cl)c3)c2cc1OCCCN1CCOCC1 [Iressa]
cell death and reporter activity in Sentinel Lines [11]: reduction in reporter activity

O=C1c2c(O)ccc(O)c2C(=O)c2c(NCCNCCO)ccc(NCCNCCO)c21 [mitoxanthrone, mitoxantrone]
cell death and reporter activity in Sentinel Lines [11]: increases in cell death and reporter activity
